# Source: paper PMC5840343, “Interplay between conformational selection and zymogen activation” (Scientific Reports, 2018)
# Values joined by “and” are separate entries in the source; they are usually repeats but may differ in a detail not shown here. Equal entries are not always repeated. “Also recorded” adds a separate entry of the source.
# Experiments:
# [1] = biological target: T1, prethrombin-2 (Homo sapiens, UniProt P00734, S568A); experiment: Equilibrium intrinsic fluorescence titration of FPR binding; details: pH 8.0, 15 °C, read-out: Kd,app (direct fluorescence titration)
# T1 construct: the protease domain (T272-E579); made in house
# Source text: (§1) defined in terms of the intrinsic equilibrium dissociation constant, Kd, and the E*:E ratio k21/k12. Direct and independent determination of Kd,app can be obtained by fluorescence titrations under the same experimental conditions used for stopped-flow measurements. The definition of Kd,app in eq. 3 leads to three useful expressions, i.e.,4 kon≥α22(0)/α2(∞)Kd,app when α2 decreases hyperbolically with [L] as in the case of prothrombin (Fig. 3A),5 kon=α2(0)[α2(∞)+k21]/α2(∞)Kd,app=α2(0)/Kd,app+α2(0)/α2(∞)Kd,appk21 when α2 increases hyperbolically with [L] as in the case of prethrombin-2 (Fig. 3A), and6 kon=α2(0)+k21/Kd,app=α2(0)/Kd,app+1/Kd,appk21 when α2 is independent of [L] as in the case of prethrombin-1 (Fig. 3A). The expression in eq. 4 yields a direct estimate of the lower limit of kon from which the value of k21 and the E*:E ratio can be arrived at with the help of eq. 3 (Table 1). The expressions in eqs 5 and 6, on the other hand, require assumptions to be made on the value of kon to arrive at the value of k21. In both cases, a lower limit for kon is estimated as kon≥α2(0)/Kd,app .
# [2] = biological target: T2, thrombin (Homo sapiens, UniProt P00734, S568A); experiment: as above; details: for Kd: thrombin
# T2 construct: the protease domain composed of the A and B chains; made in house
# Source text: as §1
# [3] = biological target: T3, meizothrombin (Homo sapiens, UniProt P00734, S568A); experiment: as above
# T3 construct: Cleavage at R320 retains the modular structure of prothrombin and generates the active intermediate meizothrombin; Cleavage at R320 generates the active intermediate meizothrombin that retains the modular organization of prothrombin; made in house
# Source text: as §1
# [4] = biological target: T4, prethrombin-1 (Homo sapiens, UniProt P00734, S568A); experiment: as above; details: pH 8.0, 15 °C, read-out: Kd,app (direct fluorescence titration)
# T4 construct: generates the intermediate prethrombin-1 (Pre1) composed of kringle-2 and the protease domain; made in house
# Source text: as §1
# [5] = biological target: T5, prothrombin (Homo sapiens, UniProt P00734, S568A); experiment: as above; details: 400 mM ChCl, 50 mM Tris, 0.1% PEG8000, pH 8.0, 15 °C, read-out: Kd,app (direct fluorescence titration)
# T5 construct: Gla-domain (A1-A46), kringle-1 (C65-C143), kringle-2 (C170-C248) and the protease domain (T272-E579); made in house
# Source text: as §1
# [6] = biological target: T1, prethrombin-2; experiment: Stopped-flow rapid kinetics of FPR binding to the active site
# Method: (§2) Rapid kinetic experiments were conducted on an Applied Photophysics SX20 stopped-flow spectrometer under conditions of excess ligand. The dead time of the mixing cell for this instrument is 0.5–1 ms. Final concentrations of 50–75 nM of thrombin and meizothrombin, or 200–400 nM of prothrombin, prethrombin-1 and prethrombin-2 were used in a buffer containing 400 mM ChCl, 50 mM Tris, 0.1% PEG8000, pH 8.0, at 15 °C. The solution containing the protein was mixed 1:1 with 60 µL solutions of FPR in the same buffer. FPR is the […] analog of the irreversible active site inhibitor H-D-Phe-Pro-Arg-CH2Cl, for which detailed structural information exists on its interaction with the active site of thrombin[47],[61]. Rapid kinetics of FPR binding were studied using an excitation of 295 nm and a cutoff filter at 320 nm. Baselines were measured by mixing the protein into buffer in the absence of ligand. Each kinetic trace for a given ligand concentration was taken as the average of a minimum of six determinations. Traces were fit to single or double exponentials based on the analysis of residuals using software supplied by Applied Photophysics.
# (§3) A detailed discussion of ligand binding mechanisms established by rapid kinetics is given elsewhere[25]–[27]. and is briefly summarized below for the sake of completeness. The relevant kinetic scheme for ligand binding to the active site of a trypsin-like protease or zymogen is1 E^∗k12←⟶k21Ekon[L]←⟶koffE:L E* and E depict the partitioning of the ensemble of pre-existing conformations between those with the active site accessible (E) or inaccessible (E*) to ligand binding. The ligand, L, selectively binds to E with a second order rate of association kon. Under conditions where L is in large excess over the macromolecule, the reaction scheme in eq. 1 gives two independent rates of relaxation to equilibrium according to the expression2 2α1,2=k12+k21+kon[L]+koff±(kon[L]+koff−k12−k21)^2+4k21kon[L]
# (§4) The fast relaxation, α1, always increases and eventually grows linearly with [L]. Depending on the sign of the expression koff−k12 , the value of the slow relaxation α2 hyperbolically decreases ( koff>k12 ) or increases ( koff<k12 ) with [L], and remains constant when koff=k12 [25]–[27]. The fast relaxation that eventually grows linearly with [L] reflects the binding event. The slow relaxation monitors the conformational transition associated with binding.
# (§5) Resolution of all four independent rate constants in the reaction scheme in eq. 1 requires measurements of both relaxations. […] 2 can be resolved unequivocally. When α2 decreases hyperbolically with [L], the lower limit in the plot, α2(0) , measures the value of koff or the sum k12+k21 , whichever is smaller. The upper limit α2(∞) measures the rate for the E* → E transition k12. […] If only α2 is accessible to experimental measurements, estimation of the E*:E ratio requires additional information from the apparent equilibrium dissociation constant3 Kd,app=koff/kon(1+k21/k12)=Kd(1+k21/k12)
# as §1, with “The expressions in eqs 5 and 6, on the other hand, require assumptions to be made on the value of kon to arrive at the value of k21. In both cases, a lower limit for kon is estimated as kon≥α2(0)/Kd,app .” left out
# [7] = biological target: T4, prethrombin-1; experiment: as above
# Method: as §2, §3, §4, §5
# as §1, with “The expressions in eqs 5 and 6, on the other hand, require assumptions to be made on the value of kon to arrive at the value of k21. In both cases, a lower limit for kon is estimated as kon≥α2(0)/Kd,app .” left out
# [8] = biological target: T5, prothrombin; experiment: as above
# Method: as §2, §3, §4, §5
# as §1, with “The expressions in eqs 5 and 6, on the other hand, require assumptions to be made on the value of kon to arrive at the value of k21. In both cases, a lower limit for kon is estimated as kon≥α2(0)/Kd,app .” left out
# [9] = biological target: T2, thrombin; experiment: as above
# Method: as §2, §3, §4, §5
# [10] = biological target: T3, meizothrombin; experiment: as above
# Method: as §2, §3, §4, §5
# [11] = biological target: prothrombin (Homo sapiens, UniProt P00734); experiment: Limited proteolysis by subtilisin in the absence or presence of argatroban; format: biochemical; details: argatroban 500 μM
# Source text: (§6) Aliquots of proteolysis mixtures were quenched whit NuPAGE LDS buffer and analyzed by non-reducing SDS-PAGE (4–12% acrylamide). None of the gels were cropped and originals are available in the Supplementary Information. The relative intensity of intact protein gel bands, after Coomassie staining, was estimated by densitometric analysis and fit to single exponential decay over time.
# [12] = biological target: thrombin (Homo sapiens, UniProt P00734); experiment: as above; format: biochemical; details: argatroban 500 μM; pH 7.4, 37 °C
# Source text: as §6
# [13] = biological target: prethrombin-2 (Homo sapiens, UniProt P00734); experiment: as above; format: biochemical; details: argatroban 500 μM; pH 7.4, 37 °C
# Source text: as §6
# [14] = biological target: prothrombin mutant R271W (Homo sapiens, UniProt P00734, R314W); experiment: Limited proteolysis by chymotrypsin in the absence or presence of argatroban; format: biochemical
# Source text: as §6
# [15] = biological target: prothrombin mutant R320W (Homo sapiens, UniProt P00734, R363W); experiment: as above; format: biochemical
# Source text: as §6
# [16] = pH 8.0, 15 °C, read-out: Kd,app (direct fluorescence titration)
# [17] = active site Ser replaced by Ala, E*→E rate, pH 8.0, 15 °C
# [18] = from rate constants, read-out: Kd,app (calculated from eq. 3)
smiles,measurement,setting,value
"N=C(N)NCCC[C@H](NC(=O)[C@@H]1CCCN1C(=O)[C@H](N)Cc1ccccc1)C(=O)Nc1ccc([N+](=O)[O-])cc1 [FPR, H-D-Phe-Pro-Arg-p-nitroanilide]",Kd,[1],29000 ± 2000 nM
same,higher affinity of thrombin compared to prothrombin,"[2]; ratio of Kd,app, thrombin vs prothrombin",700 fold
same,Kd,[2]; [16],280 ± 20 nM
same,Kd,"[2]; read-out: Kd,app from equilibrium measurements of intrinsic fluorescence titration",280 ± 20 nM
same,Kd,[3]; [16],510 ± 40 nM
same,Kd,"[3]; read-out: Kd,app from equilibrium measurements",510 ± 40 nM
same,Kd,[4],92000 ± 8000 nM
same,Kd,[5],190000 ± 20000 nM
same,k12,"[6]; prethrombin-2, catalytic Ser replaced by Ala, E*→E rate, pH 8.0, 15 °C",170 ± 10 s⁻¹
same,kon,"[6]; prethrombin-2, lower estimate from eq. 5, pH 8.0, 15 °C",≥930000 ± 80000 M⁻¹ s⁻¹
same,koff,"[6]; prethrombin-2, pH 8.0, 15 °C",27 ± 2 s⁻¹
same,Kd,"[6]; prethrombin-2, under the assumption that kon = 1.5 μM^−1 s^−1, read-out: Kd,app (calculated from eq. 3)",≥ 29000 nM
same,k12,"[7]; prethrombin-1, catalytic Ser replaced by Ala, E*→E rate, pH 8.0, 15 °C",42 ± 2 s⁻¹
same,kon,"[7]; prethrombin-1, lower estimate from eq. 6, pH 8.0, 15 °C",≥460000 ± 50000 M⁻¹ s⁻¹
same,koff,"[7]; prethrombin-1, pH 8.0, 15 °C",42 ± 2 s⁻¹
same,Kd,"[7]; prethrombin-1, under the assumption that kon = 1.5 μM^−1 s^−1, read-out: Kd,app (calculated from eq. 3)",≥ 92000 nM
same,k21,"[8]; E→E* rate, same buffer, pH 8.0, 15 °C",≥38 ± 3 s⁻¹
same,k12,"[8]; catalytic Ser replaced by Ala, E*→E rate, 400 mM ChCl, 50 mM Tris, 0.1% PEG8000, pH 8.0, 15 °C",6.9 ± 0.3 s⁻¹
same,Kd,"[8]; from rate constants, pH 8.0, 15 °C, read-out: Kd,app (calculated from eq. 3)",≥ 200000 nM
same,koff,"[8]; koff ≥ α2(0), pH 8.0, 15 °C",≥45 ± 5 s⁻¹
same,kon,"[8]; lower estimate from eq. 4, pH 8.0, 15 °C",≥1.5e+06 ± 100000 M⁻¹ s⁻¹
same,"α2(0), limiting value of the slow relaxation",[8]; the smaller between koff or the sum k12 + k21,45 ± 5 s⁻¹
same,k21,"[9]; E→E* rate, pH 8.0, 15 °C",3.8 ± 0.8 s⁻¹
same,k12,[9]; [17],16 ± 1 s⁻¹
same,Kd,[9]; [18],290 ± 20 nM
same,koff,"[9]; pH 8.0, 15 °C",0.6 ± 0.1 s⁻¹
same,kon,"[9]; pH 8.0, 15 °C",2.6e+06 ± 300000 M⁻¹ s⁻¹
same,k21,"[10]; E→E* rate, pH 8.0, 15 °C",3.4 ± 0.7 s⁻¹
same,k12,[10]; [17],8.8 ± 0.5 s⁻¹
same,Kd,[10]; [18],440 ± 30 nM
same,koff,"[10]; pH 8.0, 15 °C",0.8 ± 0.1 s⁻¹
same,kon,"[10]; pH 8.0, 15 °C",2.5e+06 ± 300000 M⁻¹ s⁻¹
CC1CNc2c(cccc2S(=O)(=O)N[C@@H](CCCNC(=N)N)C(=O)N2CC[C@@H](C)C[C@@H]2C(=O)O)C1 (some centres unmarked) [argatroban],effect on products of subtilisin proteolysis of prothrombin,[11]; non-reducing SDS-PAGE,prevents accumulation of prethrombin-1
same,effect on the rate of proteolytic digestion of prothrombin by subtilisin,"[11]; pH 7.4, 37 °C",significantly enhanced
same,enhancement of the rate of prothrombin digestion by subtilisin,"[11]; subtilisin 1:1000 (w/w), pH 7.4, 37 °C, densitometry",> 10 fold
same,effect on subtilisin digestion of thrombin,[12],practically absent; also recorded: no effect
same,effect on subtilisin digestion of prethrombin-2,[13],much less pronounced than that of prothrombin
same,kexp of chymotrypsin hydrolysis in the presence of argatroban,"[14]; R271W 0.1 mg/ml, argatroban 500 μM, chymotrypsin 1:50 (w/w), pH 7.4, 37 °C",0.027 ± 0.004 min⁻¹
same,enhancement of the rate of chymotrypsin hydrolysis,"[14]; R271W, presence vs absence of argatroban",3 fold and > 3 fold
same,kexp of chymotrypsin hydrolysis in the presence of argatroban,"[15]; R320W 0.1 mg/ml, argatroban 500 μM, chymotrypsin 1:50 (w/w), pH 7.4, 37 °C",0.035 ± 0.007 min⁻¹
same,enhancement of the rate of chymotrypsin hydrolysis,"[15]; R320W, presence vs absence of argatroban",3 fold and > 3 fold
